Data reported in ChEMBL document CHEMBL5532756, “Phenylthiazoles with potent & optimum selectivity toward Clostridium difficile” (RSC Med Chem, 2024).
Values after ≈ are worked out from the molar mass of the structure shown.

Experiments:
Type in all cases: functional
Candida albicans = assay: Antimicrobial activity against Candida albicans ATCC 64124
Escherichia coli [1] = assay: Antimicrobial activity against Escherichia coli JW55031 harboring TolC mutant
Staphylococcus aureus = assay: Antimicrobial activity against methicillin-resistant Staphylococcus aureus USA300
Neisseria gonorrhoeae = assay: Antimicrobial activity against Neisseria gonorrhoeae 194
Clostridioides difficile [2] = assay: Antimicrobial activity against Clostridioides difficile ATCC BAA-1870
Escherichia coli [3] = assay: Antimicrobial activity against Escherichia coli BW25113
Lactobacillus crispatus = assay: Antibacterial activity against Lactobacillus crispatus HM-420
Lactobacillus gasseri = assay: Antibacterial activity against Lactobacillus gasseri HM-400
Bacteroides fragilis [4] = assay: Antibacterial activity against Bacteroides fragilis HM-709
Lacticaseibacillus casei = assay: Antibacterial activity against Lactobacillus casei ATCC 334
Phocaeicola dorei = assay: Antibacterial activity against Bacteroides dorei HM-719
Clostridioides difficile [5] = assay: Antibacterial activity against Clostridioides difficile ATCC 43598
Bifidobacterium breve [6] = assay: Antibacterial activity against Bifidobacterium breve HM-411
[7] = Antibacterial activity against Bifidobacterium longum subsp. Longum HM-845
Bacteroides fragilis [8] = assay: Antibacterial activity against Bacteroides fragilis HM-714
Bifidobacterium breve [9] = assay: Antibacterial activity against Bifidobacterium breve HM-1120
Clostridioides difficile [10] = assay: Antibacterial activity against Clostridioides difficile I 11
Clostridioides difficile [11] = assay: Antibacterial activity against Clostridioides difficile I 13
Clostridioides difficile [12] = assay: Antibacterial activity against Clostridioides difficile P7

## Cc1nc(-c2ccc3ccccc3c2)sc1-c1ccnc(N2CCC[C@@H]2CO)n1
Candida albicans
  MIC: > 64 µg/mL
Escherichia coli [1]
  MIC: > 64 µg/mL
Staphylococcus aureus
  MIC: > 64 µg/mL
Neisseria gonorrhoeae
  MIC: 32 µg/mL (≈ 79.5 µM)
Clostridioides difficile [2]
  MIC: 64 µg/mL (≈ 159 µM)
Escherichia coli [3]
  MIC: > 64 µg/mL

## Cc1nc(-c2ccc3ccccc3c2)sc1-c1ccnc(NCCN(C)C)n1
Candida albicans
  MIC: 16 µg/mL (≈ 41.1 µM)
Escherichia coli [1]
  MIC: 16 µg/mL (≈ 41.1 µM)
Staphylococcus aureus
  MIC: 16 µg/mL (≈ 41.1 µM)
Neisseria gonorrhoeae
  MIC: > 64 µg/mL
Clostridioides difficile [2]
  MIC: 16 µg/mL (≈ 41.1 µM)
Escherichia coli [3]
  MIC: > 64 µg/mL

## Cc1nc(-c2ccc3ccccc3c2)sc1-c1ccnc(N2CCCCC2CN)n1 (stereo not given)
Candida albicans
  MIC: 16 µg/mL (≈ 38.5 µM)
Escherichia coli [1]
  MIC: > 64 µg/mL
Staphylococcus aureus
  MIC: > 64 µg/mL
Neisseria gonorrhoeae
  MIC: > 64 µg/mL
Clostridioides difficile [2]
  MIC: 64 µg/mL (≈ 154 µM)
Escherichia coli [3]
  MIC: > 64 µg/mL

## Cc1nc(-c2ccc3ccccc3c2)sc1-c1ccnc(NCCO)n1
Candida albicans
  MIC: 1 µg/mL (≈ 2.76 µM)
Escherichia coli [1]
  MIC: > 64 µg/mL
Staphylococcus aureus
  MIC: > 64 µg/mL
Neisseria gonorrhoeae
  MIC: > 64 µg/mL
Clostridioides difficile [2]
  MIC: 64 µg/mL (≈ 177 µM)
Escherichia coli [3]
  MIC: > 64 µg/mL

## Cc1nc(-c2ccc3ccccc3c2)sc1-c1ccnc(-c2cccnc2)n1
Candida albicans
  MIC: > 64 µg/mL
Escherichia coli [1]
  MIC: > 64 µg/mL
Staphylococcus aureus
  MIC: > 64 µg/mL
Neisseria gonorrhoeae
  MIC: > 64 µg/mL
Clostridioides difficile [2]
  MIC: > 64 µg/mL
Escherichia coli [3]
  MIC: > 64 µg/mL

## Cc1nc(-c2ccc3ccccc3c2)sc1-c1ccnc(NCCCO)n1
Candida albicans
  MIC: > 64 µg/mL
Escherichia coli [1]
  MIC: > 64 µg/mL
Staphylococcus aureus
  MIC: > 64 µg/mL
Neisseria gonorrhoeae
  MIC: > 64 µg/mL
Clostridioides difficile [2]
  MIC: 64 µg/mL (≈ 170 µM)
Escherichia coli [3]
  MIC: > 64 µg/mL

## Cc1nc(-c2ccc3ccccc3c2)sc1-c1ccnc(N[C@H]2CC[C@H](N)CC2)n1
Candida albicans
  MIC: 16 µg/mL (≈ 38.5 µM)
Escherichia coli [1]
  MIC: > 64 µg/mL
Staphylococcus aureus
  MIC: 8 µg/mL (≈ 19.3 µM)
Neisseria gonorrhoeae
  MIC: > 64 µg/mL
Clostridioides difficile [2]
  MIC: 32 µg/mL (≈ 77 µM)
Escherichia coli [3]
  MIC: > 64 µg/mL

## Cc1nc(-c2ccc3ccccc3c2)sc1-c1ccnc(N[C@@H]2CCCC[C@H]2N)n1 (relative stereo)
Candida albicans
  MIC: 8 µg/mL (≈ 19.3 µM)
Escherichia coli [1]
  MIC: 8 µg/mL (≈ 19.3 µM)
Staphylococcus aureus
  MIC: 4 µg/mL (≈ 9.63 µM)
Neisseria gonorrhoeae
  MIC: 64 µg/mL (≈ 154 µM)
Clostridioides difficile [2]
  MIC: 16 µg/mL (≈ 38.5 µM)
Escherichia coli [3]
  MIC: > 64 µg/mL

## Cc1nc(-c2ccc3ccccc3c2)sc1-c1ccnc(-c2ccncc2)n1
Candida albicans
  MIC: > 64 µg/mL
Escherichia coli [1]
  MIC: > 64 µg/mL
Staphylococcus aureus
  MIC: > 64 µg/mL
Neisseria gonorrhoeae
  MIC: > 64 µg/mL
Clostridioides difficile [2]
  MIC: > 64 µg/mL
Escherichia coli [3]
  MIC: > 64 µg/mL

## Cc1ncc([N+](=O)[O-])n1CCO [METRONIDAZOLE]
Lactobacillus crispatus
  MIC: > 8 µg/mL
Lactobacillus gasseri
  MIC: > 8 µg/mL
Bacteroides fragilis [4]
  MIC: 1 µg/mL (≈ 5.84 µM)
Lacticaseibacillus casei
  MIC: > 8 µg/mL
Phocaeicola dorei
  MIC: 0.25 µg/mL (≈ 1.46 µM)
Clostridioides difficile [5]
  MIC: 0.25 µg/mL (≈ 1.46 µM)
Bifidobacterium breve [6]
  MIC: > 8 µg/mL
[7]
  MIC: 0.5 µg/mL (≈ 2.92 µM)
Bacteroides fragilis [8]
  MIC: 1 µg/mL (≈ 5.84 µM)
Bifidobacterium breve [9]
  MIC: > 8 µg/mL
Clostridioides difficile [10]
  MIC: 0.5 µg/mL (≈ 2.92 µM)
Clostridioides difficile [11]
  MIC: 0.25 µg/mL (≈ 1.46 µM)
Clostridioides difficile [2]
  MIC: 0.25 µg/mL (≈ 1.46 µM)
Clostridioides difficile [12]
  MIC: 0.25 µg/mL (≈ 1.46 µM)

## Cc1nc(-c2ccc3ccccc3c2)sc1-c1ccnc(N2CCC[C@H]2C(N)=O)n1
Candida albicans
  MIC: > 64 µg/mL
Escherichia coli [1]
  MIC: > 64 µg/mL
Staphylococcus aureus
  MIC: > 64 µg/mL
Neisseria gonorrhoeae
  MIC: > 64 µg/mL
Clostridioides difficile [2]
  MIC: 64 µg/mL (≈ 154 µM)
Escherichia coli [3]
  MIC: > 64 µg/mL

## Cc1nc(-c2ccc3ccccc3c2)sc1-c1ccnc(NCC(O)CO)n1 (racemic)
Candida albicans
  MIC: > 64 µg/mL
Escherichia coli [1]
  MIC: > 64 µg/mL
Staphylococcus aureus
  MIC: > 64 µg/mL
Neisseria gonorrhoeae
  MIC: 64 µg/mL (≈ 163 µM)
Clostridioides difficile [2]
  MIC: 8 µg/mL (≈ 20.4 µM)
Escherichia coli [3]
  MIC: > 64 µg/mL
